From EP2951180B1, “2,6,7,8 SUBSTITUTED PURINES AS HDM2 INHIBITORS” (Merck Sharp & Dohme Corp., priority 2013, dated 2014)

Each compound was assayed against T1, HDM2 (Homo sapiens, UniProt Q00987) (assay: FRET assay (HDM2 inhibition; method not described in this part)). Details: Table 1.
T1 construct: Thioredoxin (N); made in house; host or cells: E. coli strain BL21(DE3)Rosetta
Assay type: binding

T1 sequence (Q00987 17-125): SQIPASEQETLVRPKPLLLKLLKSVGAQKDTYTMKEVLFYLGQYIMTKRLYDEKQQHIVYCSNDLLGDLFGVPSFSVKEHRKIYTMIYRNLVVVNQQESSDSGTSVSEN

SMILES | IC50
C[C@@H](Nc1nc(C(=O)O)nc2nc(-c3cc(OC4CCCCC4)ccn3)n(Cc3ccc(C(F)(F)F)cc3)c12)C1CCC1 [Example 1.58, 6-{[(1R)-1-cyclobutylethyl]amino}-8-[4-(cyclohexyloxy)pyridin-2-yl]-7-[4-(trifluoromethyl)benzyl]-7H-purine-2-carboxylic acid] | 16.9 nM
CC(C)c1ccc(OC(F)(F)F)c(-c2nc3nc(C(=O)O)nc(N[C@H](C)C4CCC4)c3n2Cc2ccc(C(F)(F)F)c(F)c2)c1 [Example 1.3, (R)-6-((1-cyclobutylethyl)amino)-7-(3-fluoro-4-(trifluoromethyl)benzyl)-8-(5-isopropyl-2-(trifluoromethoxy)phenyl)-7H-purine-2-carboxylic acid] | 15.2 nM
COc1ccc(-c2nc3nc(C(=O)O)nc(N[C@H](C)C4CCC4)c3n2Cc2ccc(C(F)(F)F)cc2)nc1 [Example 1.20, 6-{[(1R)-1-cyclobutylethyl]amino}-8-(5-methoxypyridin-2-yl)-7-[4-(trifluoromethyl)benzyl]-7H-purine-2-carboxylic acid] | 24.1 nM
C[C@@H](Nc1nc(C(=O)O)nc2nc(-c3ccc(C4OCCO4)cn3)n(Cc3ccc(C(F)(F)F)cc3)c12)C1CCC1 [Example 1.65, 6-{[(1R)-1-cyclobutylethyl]amino}-8-[5-(1,3-dioxolan-2-yl)pyridin-2-yl]-7-[4-(trifluoromethyl)benzyl]-7H-purine-2-carboxylic acid] | 62.2 nM
Cc1cccc(-c2nc3nc(C(=O)O)nc(N[C@H](C)C4CCC4)c3n2Cc2ccc(C(F)(F)F)cc2)n1 [Example 1.19] | 42.5 nM
CC(C)c1ccnc(-c2nc3nc(C(=O)O)nc(N[C@H](C)C4CCC4)c3n2Cc2ccc(C(F)(F)F)cc2)c1 [Example 1.22] | 4.22 nM
C[C@@H](Nc1nc(C(=O)O)nc2nc(-c3ccc(-c4ccccc4)cc3)n(Cc3ccc(C(F)(F)F)cc3)c12)C1CCC1 [Example 1.109, 8-biphenyl-4-yl-6-{[(1R)-1-cyclobutylethyl]amino}-7-[4-(trifluoromethyl)benzyl]-7H-purine-2-carboxylic acid] | 473 nM
C[C@@H](Nc1nc(C(=O)O)nc2nc(-c3cc(Cl)ccn3)n(Cc3ccc(C(F)(F)F)cc3)c12)C1CCC1 [Example 1.44, 8-(4-chloropyridin-2-yl)-6-{[(1R)-1-cyclobutylethyl]amino}-7-[4-(trifluoromethyl)benzyl] - 7H-purine-2-carboxylic acid] | 16.5 nM
Cc1cc(C(C)C)cc(-c2nc3nc(C(=O)O)nc(N[C@H](C)C4CCC4)c3n2Cc2ccc(C(F)(F)F)cc2)n1 [Example 1.93, 6-{[(1R)-1-cyclobutylethyl]amino}-8-[6-methyl-4-(1-methylethyl)pyridin-2-yl]-7-[4-(trifluoromethyl)benzyl]-7H-purine-2-carboxylic acid] | 19.1 nM
Cc1ccc(Cl)c(-c2nc3nc(C(=O)O)nc(N[C@H](C)C4CCC4)c3n2Cc2ccc(C(F)(F)F)cc2)c1 [Example 1.120, 8-(2-chloro-5-methylphenyl)-6-{[(1R)-1-cyclobutylethyl]amino}-7-[4-(trifluoromethyl)benzyl] - 7H-purine-2-carboxylic acid] | 10.4 nM
COc1ccc(C)cc1-c1nc2nc(C(=O)O)nc(N[C@H](C)C3CCC3)c2n1Cc1ccc(C(F)(F)F)cc1 [Example 1.119, 6-{[(1R)-1-cyclobutylethyl]amino}-8-(2-methoxy-5-methylphenyl)-7-[4-(trifluoromethyl)benzyl]-7H-purine-2-carboxylic acid] | 9.97 nM
CCCc1ccnc(-c2nc3nc(C(=O)O)nc(N[C@H](C)C4CCC4)c3n2Cc2ccc(C(F)(F)F)cc2)c1 [Example 1.68, 6-{[(1R)-1-cyclobutylethyl]amino}-8-(4-propylpyridin-2-yl)-7-[4-(trifluoromethyl)benzyl]-7H-purine-2-carboxylic acid] | 5.62 nM
C[C@@H](Nc1nc(C(=O)O)nc2nc(-c3cc(OC4CCC4)ccn3)n(Cc3ccc(C(F)(F)F)cc3)c12)C1CCC1 [Example 1.45, 6-{[(1R)-1-cyclobutylethyl]amino}-8-[4-(cyclobutyloxy)pyridin-2-yl]-7-[4-(trifluoromethyl)benzyl]-7H-purine-2-carboxylic acid] | 50.8 nM
C[C@@H](Nc1nc(C(=O)O)nc2nc(-c3ccc(OC(F)F)cc3)n(Cc3ccc(C(F)(F)F)cc3)c12)C1CCC1 [Example 1.100, 6-{[(1R)-1-cyclobutylethyl]amino}-8-[4-(difluoromethoxy)phenyl]-7-[4-(trifluoromethyl)benzyl]-7H-purine-2-carboxylic acid] | 51.8 nM
C[C@@H](Nc1nc(C(=O)O)nc2nc(-c3ccc4occc4c3)n(Cc3ccc(C(F)(F)F)cc3)c12)C1CCC1 [Example 1.117, 8-(1-benzofuran-5-yl)-6-{[(1R)-1-cyclobutylethyl]amino}-7-[4-(trifluoromethyl)benzyl]-7H-purine-2-carboxylic acid] | 16.7 nM
COc1ccc(C(F)(F)F)cc1-c1nc2nc(C(=O)O)nc(N[C@H](C)C3CCC3)c2n1Cc1ccc(C(F)(F)F)cc1 [Example 1.35, 6-{[(1R)-1-cyclobutylethyl]amino}-8-[2-methoxy-5-(trifluoromethyl)phenyl]-7-[4-(trifluoromethyl)benzyl] - 7H-purine-2-carboxylic acid] | 27.8 nM
CC(C)c1ccnc(-c2nc3nc(C(=O)O)nc(N(C)[C@H](C)C4CCC4)c3n2Cc2ccc(C(F)(F)F)c(F)c2)c1 [Example 1.13, (R)-6-((1-cyclobutylethyl)(methyl)amino)-7-(3-fluoro-4-(trifluoromethyl)benzyl)-8-(4-isopropylpyridin-2-yl)-7H-purine-2-carboxylic acid] | 158 nM

Same assay, conditions: Table 2

SMILES | IC50
Cc1cc(-c2nc3nc(C(=O)O)nc(N[C@H](C)C4CC4)c3n2Cc2ccc(Cl)cc2)ccc1F [Example 2.13, 7-(4-chlorobenzyl)-6-{[(1R)-1-cyclopropylethyl]amino}-8-(4-fluoro-3-methylphenyl)-7H-purine-2-carboxylic acid] | 40.4 nM
C[C@@H](Nc1nc(C(=O)O)nc2nc(-c3ccc(Cl)cc3Cl)n(Cc3ccc(C(F)(F)F)cc3)c12)C1CC1 [Example 2.58, 6-{[(1R)-1-cyclopropylethyl]amino}-8-(2,4-dichlorophenyl)-7-[4-(trifluoromethyl)benzyl]-7H-purine-2-carboxylic acid] | 213 nM
C[C@@H](Nc1nc(C(=O)O)nc2nc(-c3cccc(Cl)c3)n(Cc3ccc(Cl)cc3)c12)C1CC1 [Example 2.5, 7-(4-chlorobenzyl)-8-(3-chlorophenyl)-6-{[(1R)-1-cyclopropylethyl]amino}-7H-purine-2-carboxylic acid] | 218 nM
C[C@@H](Nc1nc(C(=O)O)nc2nc(-c3cccc(OC(F)(F)F)c3)n(Cc3ccc(C(F)(F)F)cc3)c12)C1CCC1 [Example 2.39, 6-{[(1R)-1-cyclobutylethyl]amino}-8-[3-(trifluoromethoxy)phenyl]-7-[4-(trifluoromethyl)benzyl]-7H-purine-2-carboxylic acid] | 52 nM
C[C@@H](Nc1nc(C(=O)O)nc2nc(-c3ccc4ccccc4c3)n(Cc3ccc(C(F)(F)F)cc3)c12)C1CC1 [Example 2.60, 6-{[(1R)-1-cyclopropylethyl]amino}-8-naphthalen-2-yl-7-[4-(trifluoromethyl)benzyl]-7H-purine-2-carboxylic acid] | 306 nM
COc1ccc(-c2nc3nc(C(=O)O)nc(N[C@H](C)C4CC4)c3n2Cc2ccc(C(F)(F)F)cc2)cn1 [Example 2.48, 6-{[(1R)-1-cyclopropylethyl]amino}-8-(6-methoxypyridin-3-yl)-7-[4-(trifluoromethyl)benzyl]-7H-purine-2-carboxylic acid] | 680 nM
CCOc1ccc(-c2nc3nc(C(=O)O)nc(N[C@H](C)C4CC4)c3n2Cc2ccc(C(F)(F)F)cc2)cn1 [Example 2.72, 6-{[(1R)-1-cyclopropylethyl]amino}-8-(6-ethoxypyridin-3-yl)-7-[4-(trifluoromethyl)benzyl]-7H-purine-2-carboxylic acid] | 613 nM
C[C@@H](Nc1nc(C(=O)O)nc2nc(-c3ccc4sccc4c3)n(Cc3ccc(Cl)cc3)c12)C1CCC1 [Example 2.10, 8-(1-benzothiophen-5-yl)-7-(4-chlorobenzyl)-6-{[(1R)-1-cyclobutylethyl]amino}-7H-purine-2-carboxylic acid] | 7.2 nM

Same assay, conditions: Table 3

SMILES | IC50
CC(C)c1cnc(-c2nc3nc(C(=O)O)nc(N[C@H](C)C4CCC4)c3n2Cc2ccc(C(F)(F)F)cc2)s1 [Example 3.3, (R)-6-((1-cyclobutylethyl)amino)-8-(5-isopropylthiazol-2-yl)-7-(4-(trifluoromethyl)benzyl)-7H-purine-2-carboxylic acid] | 57.9 nM

Same assay, conditions: Table 4

SMILES | IC50
COCCOc1ccc(C)cc1-c1nc2nc(C(=O)O)nc(N[C@H](C)C3CC3)c2n1Cc1ccc(Cl)cc1 [Example 4.9, (R)-7-(4-chlorobenzyl)-6-((1-cyclopropylethyl)amino)-8-(2-(2-methoxyethoxy)-5-methylphenyl)-7H-purine-2-carboxylic acid] | 27.3 nM
Cc1ccc(OCCCN2CCN(C)CC2)c(-c2nc3nc(C(=O)O)nc(N[C@H](C)C4CC4)c3n2Cc2ccc(Cl)cc2)c1 [Example 4.17, (R)-7-(4-chlorobenzyl)-6-(1-cyclopropylethylamino)-8-(5-methyl-2-(3-(4-methylpiperazin-1-yl)propoxy)phenyl)-7H-purine-2-carboxylic acid] | 507 nM

Same assay, conditions: Table 5

SMILES | IC50
Cc1cccc(-c2nc3nc(C(=O)O)nc(N[C@H](C)C4CC4)c3n2Cc2ccc(F)c(C(F)(F)F)c2)c1 [Example 5.4, 6-{[(1R)-1-cyclopropylethyl]amino}-7-[4-fluoro-3-(trifluoromethyl)benzyl]-8-(3-methylphenyl)-7H-purine-2-carboxylic acid] | 4140 nM
CCOc1cc(C(F)(F)F)ccc1Cn1c(-c2cccc(C)c2)nc2nc(C(=O)O)nc(N[C@H](C)C3CCC3)c21 [Example 5.18, 6-{[(1R)-1-cyclobutylethyl]amino}-7-[2-ethoxy-4-(trifluoromethyl)benzyl]-8-(3-methylphenyl)-7H-purine-2-carboxylic acid] | 207 nM
